Test results as given in patent US7485742B2, “Non-glycosidic and non-peptidic inhibitors of selectin, and the use thereof” (Johannes Gutenberg-Universität Mainz, priority 2004, dated 2009).

How the values were obtained:
[1] = tested on: adhesion of PMN leukocytes to BAEC monolayer stimulated with TNF-α (selectin-mediated); experiment: Static adhesion assay (leukocyte adhesion to endothelial monolayer); assay type: cell-based, bovine; settings: for potency in the static adhesion assay, bimosiamose compared with T3: bimosiamose at 600 μM versus T3 at 100 μM
Method: The reduction of adhesion of adhering leukocytes to the monolayer stimulated with TNF-α was set to 0%, the one in the untreated control-wells was set to 100%.
Following seeding in 24 well-plates, the examination of the adhesion was performed using (bovine aorta endothelial cells) BAEC monolayers of the cell passage 1-3 seven days. Before performing the assay, the completeness and the uniformity of the BAEC-monolayer was microscopically ensured. The culture medium (500 ml of medium M199, to which 6 ml of penicillin/streptomycin solution 1%, 6 ml L-glutamine (200 mM) and 100 ml (20%) of fetal calf serum, Sigma, Munich, were added) was removed, and the monolayer was washed twofold with DPBS (1000 μl/well, 37° C.). Subsequent to washing, the cells were treated with the cell culture medium containing 20 ng/ml of recombinant tumor necrosis-factor-alpha (TNFα) (in the presence of the respective test substance, dissolved in dimethylsulfoxide (DMSO) or only with DMSO as vehicle) […] at 37° C. and 5% CO2 for 4 hours. After another twofold washing with DPBS (1000 μl/well, 37° C.) 900 μl of the culture medium and 100 μl of a PMN-suspension (10^6 cells per ml) were added per well, and incubated for 30 minutes at 37° C. and 5% CO2. Non-adherent cells were removed by twofold washing with DPBS (1000 μl/well, 37° C.). […]
The BAEC-sections were analyzed with an inverse Leica DM IRS-microscope (Leica, Bensheim, Germany) at 100-fold magnification. […] For the manual counting of PMNs, several randomly selected sections of 0.25 mm^2 in size from the centre of the respective well of the well-plate were counted. […] In order to do so, each PMN in the area as chosen was counted by a PC-mouse click, and the counted cells were labeled. […]
The analysis of the pictures was performed using the publicly available ImageJ-software (available at http://rsb.info.nih.gov/ij), installed on a standard-PC (Maxdata, Mergel, Germany). All pictures as obtained in a test run were grouped into an series, and then analyzed in an automated method using a specifically programmed macro. […]

MM6-cells = experiment: XTT-viability test; assay type: cell-based; settings: after 1.5 hours, FIG. 3
Method: The XTT-assay (Cell Proliferation Kit II (XTT), Roche molekulare Biochemikalien, Mannheim, Germany) was used for the quantification of the anti-proliferative or cytotoxic effects of the substances as synthesized. The assay is based on the conversion of the yellow tetrazolium-salt XTT into an orange formazan-dye by metabolically active cells. The XTT-formazan-dye is soluble in aqueous solutions, and can be directly determined in a quantitative fashion with an ELISA-reader. The incubation time varies depending from the respective experimental setting (e.g. the kind of cell and the cellular concentrations used). Following the addition of the final XTT-reagent, the absorption was determined at 490 nm, at different points in time (e.g. 30 minutes, 4, 6, 8, 12, and 18 hours). All data were analyzed with Microsoft Excel. The IC50 values were calculated with the program GRAFIT, Erithacus Software Ltd., Great Britain.
Using the commercial available XTT-test kit, the cytotoxic behavior of substances with different structural elements against MM6-cells was examined after 1.5 hours. Structural elements that are responsible for the cytotoxicity were identified. The amide-function in combination with free carboxylic acid-functions was identified as particularly cytotoxic.

selectins = settings: cited from earlier work

Compound	effect on the reduction of the adhesion (potency) ([1]; static assay, FIG. 1, leukocytes on TNF-α-stimulated BAEC monolayer, 10^-4-10^-7 mol/l tested)	cytotoxic behavior (XTT) (MM6-cells)	potency in the static adhesion assay, bimosiamose compared with T3 [1]	affinity to the selectins compared to sLeX (selectins)
CCCCCCCCCCOc1cc(OCCCCCCCCCC)cc(OCCCCCCN(c2ccc(C(=O)O)cc2)c2ccc(C(=O)O)cc2)c1 [T21, 4-(N-(6-(3,5-bis(decyloxy)phenoxy)hexyl)-N-(4-carboxyl-phenyl)amino)benzoic acid]	highly potent	completely non-toxic		
O=C(O)Cc1cccc(-c2cc(CCCCCCc3ccc(O[C@H]4O[C@H](CO)[C@@H](O)[C@H](O)[C@@H]4O)c(-c4cccc(CC(=O)O)c4)c3)ccc2O[C@H]2O[C@H](CO)[C@@H](O)[C@H](O)[C@@H]2O)c1 [bimosiamose, 1,6-bis[3-(3-carboxymethylphenyl)-4-(2-alpha-D-mannopyranosyloxy)phenyl]hexane]			about the same potency	essentially higher affinity
CS(=O)(=O)c1ccc(C2=C(c3ccccc3)C(=O)OC2)cc1 [Rofecoxib]		has cytotoxic effects		
CCCCCCCCCCOc1cc(OCCCCCCCCCC)cc(OCCCCCC(=O)N(c2ccc(C(=O)O)cc2)c2ccc(C(=O)O)cc2)c1 [T3, 6-(3,5-Didecyloxyphenoxy)-hexanoic acid-N,N-bis(4-carboxyphenyl)amide]			about the same potency	
